# According to patent US20030232383A1, “Novel reagentless sensing system for measuring carbohydrates based on the galactose/glucose binding protein” (priority 2001, published 2003):
# Like-named read-outs stand apart in the source and are kept apart here.
# Key:
# GBP = GBP (Escherichia coli, UniProt P0AEE5); conditions: Miller et al. 1983; read-out: dissociation constants, Kd; cited from earlier work
# [1] = biological target: GBP mutant M182C (Met182Cys) (Escherichia coli, UniProt P0AEE5, M205C); assay: Steady-state fluorescence of fluorophore-labeled GBP mutant M182C on ligand binding; design: species or system E. coli
# GBP mutant M182C (Met182Cys), sequence (P0AEE5 24-332 M205C): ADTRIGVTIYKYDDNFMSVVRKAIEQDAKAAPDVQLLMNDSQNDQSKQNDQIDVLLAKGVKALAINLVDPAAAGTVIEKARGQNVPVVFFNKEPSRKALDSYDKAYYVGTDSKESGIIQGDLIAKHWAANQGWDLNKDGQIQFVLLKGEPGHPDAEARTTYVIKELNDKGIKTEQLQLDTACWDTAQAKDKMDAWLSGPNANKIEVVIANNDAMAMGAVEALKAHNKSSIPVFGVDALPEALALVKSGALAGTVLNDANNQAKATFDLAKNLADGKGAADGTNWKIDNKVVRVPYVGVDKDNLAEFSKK
# Description: Labeling the mutants of GBP with fluorescent probes. The mutant protein was first dialysed three times against either 10 mM Tris-HCl, 1 mM DTT, 0.2 mM CaCl2, pH 8.0 (for reaction with MDCC) or 10 mM HEPES, 1 mM DTT, 0.2 mM CaCl2, pH 7.4 (for reaction with acrylodan, 1,5-IAEDANS, or IANBD ester). DTT was present in the buffers to reduce any disulfide linkages that may have formed between two protein molecules. The protein was then dialysed three times against the respective buffers (with no DTT) to remove excess of the reducing agent. For the conjugation reaction, a molar ratio of fluorophore to protein of 5:1 was employed. The fluorophores were added slowly to the mutants of GBP (μM concentrations) so as to allow the cysteine residue on all the protein molecules to have an equal opportunity to react with the fluorophore. The solution was stirred constantly in a glass reaction vessel and in the dark for 4 h at 4° C. […]
# Steady-state fluorescence studies of the fluorophore-labeled mutant proteins. […] The concentrations of labeled proteins used in the steady-state fluorescence studies were in the 1×10^−7 M range. […] The samples were analyzed in the spectrofluorometer under the aforementioned parameters. Calibration plots were obtained by relating the average fluorescence change with the concentration of glucose or galactose in the sample.
# GBP labeled with D-22 = GBP labeled with D-22 (Escherichia coli, UniProt P0AEE5); assay: Steady-state fluorescence of D-22-labeled (dansylated) GBP; format: binding, E. coli; conditions: addition of 1.6×10^−4 M sugar; protein to fluorophore 1:50, 1:100, 1:200
# GBP labeled with D-22, sequence (P0AEE5 24-332 limits assumed): as the sequence (P0AEE5 24-332 M205C) above, with C182M counted along it
# Description: Labeling GBP with D-22. GBP was dialysed three times against 0.1 M NaHCO3, pH 9.0. Three conjugation reactions with protein to fluorophore mole ratios of 1:50, 1:100, and 1:200 were carried out. Three microvials, each containing GBP, were placed in an ice bath. The fluorophore was added to the vials in small increments while the solution was being stirred. The mixture was allowed to react in the dark at 4° C. for 1 h. To eliminate the excess of unbound D-22, size exclusion chromatography was employed. A D-Salt Polyacrylamide 6000 desalting column was equilibrated with 10 mM Tris-HCl, pH 8.0. The conjugates were loaded onto the column. Elution of the labeled protein was conducted with the equilibration buffer and the conjugate finally dialysed three times against 10 mM Tris-HCl, pH 8.0.
# Steady-state fluorescence studies of the labeled GBP. Fluorescence measurements were conducted with sample volumes of 1.5 mL and in quartz cuvettes. After the addition of 30 μL of D-(+)-galactose and D-(+)-glucose to the conjugate, the solution was allowed to incubate for 15 min at 4° C. while mixing at 400 rpm. The excitation and emission monochromator slit widths were set at 2 mm. The excitation wavelength was 350 nm and emission was detected at 475 nm.
# [2] = biological target: GBP mutant H152C (His152Cys) (Escherichia coli, UniProt P0AEE5, H175C); format: binding, E. coli
# GBP mutant H152C (His152Cys), sequence (P0AEE5 24-332 H175C limits assumed): as the sequence (P0AEE5 24-332 M205C) above, with H152C, C182M counted along it
# Description: (§1) Labeling the mutants of GBP with fluorescent probes. The mutant protein was first dialysed three times against either 10 mM Tris-HCl, 1 mM DTT, 0.2 mM CaCl2, pH 8.0 (for reaction with MDCC) or 10 mM HEPES, 1 mM DTT, 0.2 mM CaCl2, pH 7.4 (for reaction with acrylodan, 1,5-IAEDANS, or IANBD ester). DTT was present in the buffers to reduce any disulfide linkages that may have formed between two protein molecules. The protein was then dialysed three times against the respective buffers (with no DTT) to remove excess of the reducing agent. For the conjugation reaction, a molar ratio of fluorophore to protein of 5:1 was employed. The fluorophores were added slowly to the mutants of GBP (μM concentrations) so as to allow the cysteine residue on all the protein molecules to have an equal opportunity to react with the fluorophore. The solution was stirred constantly in a glass reaction vessel and in the dark for 4 h at 4° C. (with MDCC and acrylodan) or for 2-3 h at RT (with 1,5-IAEDANS or IANBD ester). The conjugated protein was separated from the free fluorophore by running the sample through a Sephadex G-25 column and eluting with the respective buffer.
# (§2) Steady-state fluorescence studies of the fluorophore-labeled mutant proteins. The excitation and emission monochromator slit widths were both set at 2 mm. The excitation and emission wavelengths for MDCC, acrylodan, 1,5-IAEDANS, and IANBD ester were 425 nm and 475 nm, 382 nm and 509 nm, 336 nm and 490 nm, and 472 nm and 536 nm, respectively. All data were obtained at RT using quartz cuvettes with sample volumes of 1.5-2 mL. The concentrations of labeled proteins used in the steady-state fluorescence studies were in the 1×10^−7 M range. The conjugates were incubated with various concentrations of glucose and galactose for 15-20 min at RT on a shaker at 400 rpm. The samples were analyzed in the spectrofluorometer under the aforementioned parameters. Calibration plots were obtained by relating the average fluorescence change with the concentration of glucose or galactose in the sample.
# [3] = biological target: GBP mutant G148C (Gly148Cys) (Escherichia coli, UniProt P0AEE5, G171C); format: binding, E. coli
# GBP mutant G148C (Gly148Cys), sequence (P0AEE5 24-332 G171C limits assumed): as the sequence (P0AEE5 24-332 M205C) above, with G148C, C182M counted along it
# Description: as §1, §2
# [4] = biological target: calcium binding site of GBP (Escherichia coli, UniProt P0AEE5); conditions: Vyas et al. 1989, cited from earlier work
# calcium binding site of GBP, sequence (P0AEE5 24-332 limits assumed): as the sequence (P0AEE5 24-332 M205C) above, with C182M counted along it
# GBP, sequence (P0AEE5 24-332): as the sequence (P0AEE5 24-332 M205C) above, with C182M counted along it
smiles,measurement,setting,value
"O=C[C@H](O)[C@@H](O)[C@@H](O)[C@H](O)CO [Galactose, D-(+)-galactose]",Kd,GBP,400 µM
same,% quenching,[1]; M182C labeled with Acrylodan,5%
same,% quenching,[1]; M182C labeled with MDCC,6%
same,change of fluorescence signal of dansylated GBP,GBP labeled with D-22,quenching of the fluorescence signal
same,% quenching,[2]; H152C labeled with IANBD,4%
same,% quenching,[2]; H152C labeled with MDCC,19%
same,% quenching,[3]; G148C labeled with IAEDANS,7%
same,% quenching,[3]; G148C labeled with MDCC,16%
[Ca+2] [calcium],Kd,[4]; read-out: dissociation constant,2 µM
[Tb+3] [terbium],dissociation rate,[4],0.001 s⁻¹
